These molecules were tested on UT7/EPO Cell line (assay: Cell Proliferation Assay (UT7/EPO, ViaLight Plus)). Conditions: proliferative effect; compounds at 10 uM; UT7/EPO cells starved of EPO overnight; 72 hours at 37° C.; ViaLight Plus kit.
Type: cell-based, human
Description: The primary testing for the examplfied compounds was performed in UT7/EPO Cell line. UT7/EPO is human leukemia cell line, obtained from Dr. Norio Komatsu (Blood, Vol 82 (2), pp 456-464, 1993). These cells express endogenous EPO receptor and are dependant upon EPO for growth and proliferation. Briefly, the cells were starved of EPO overnight and plated in 96 or 384 well plates. The compounds were added to the cells at 10 uM concentration. The plates were then incubated at 37° C. for 72 hours. The proliferative effect of the compounds was measured by a commercially available kit from Lonza (ViaLight Plus).

With COC(=O)c1ccc(C(=O)Nc2ccc3[nH]c(-c4ccccc4)nc3c2)cc1 [Compound 1705, Methyl 4-(2-phenyl-1H-benzimidazol-5-ylcarbamoyl)-benzoate] as the molecule, how does the “Activity (%)” value read?
The value was 12%.

With COc1ccc(-c2nc3cc(NC(=O)c4ccc(NC(=O)c5ccc(N(C)C)cc5)cc4)ccc3[nH]2)cc1 [Compound 444, 4-(dimethylamino)-N-(4-((2-(4-methoxyphenyl)-1H-benzo[d]imidazol-5-yl)carbamoyl)phenyl)benzamide] as the molecule, how does the “Activity (%)” value read?
Its value is 19%.

How did the “Activity (%)” value turn out when CCn1c(C)ccc1C(=O)Nc1ccc(Nc2ccc(NC(=O)c3ccc(N4CCC(O)CC4)cc3)cc2)cc1 [Compound 900] was run?
Its value is 24%.

COc1cccc(/C=N/NC(=O)c2ccc(C(=O)NCCC(=O)NCCO)cc2)c1 [Compound 141, (E)-N-(3-((2-hydroxyethyl)amino)-3-oxopropyl)-4-(2-(3-methoxybenzylidene)hydrazinecarbonyl)benzamide] was tested. Which “Activity (%)” value did it give?
Its value is 19%.

COc1ccc(-c2cc(NC(=O)c3ccc(C(=O)Nc4cc(-c5ccc(OC)cc5)[nH]n4)cc3)n[nH]2)cc1 [Compound 473, N,N′-bis(5-(4-Methoxyphenyl)-1H-pyrazol-3-yl)terephthalamide] was tested. Which “Activity (%)” value did it give?
The value was 11%.

How did the “Activity (%)” value turn out when CN(C)c1ccc(C(=O)N/N=C/c2cc(/C=N/NC(=O)c3ccc(N(C)C)cc3)cc(NCCO)c2)cc1 [Compound 135, (N′,N′″E,N′,N′″E)-N′,N′″-((5-((2-hydroxyethyl)amino)-1,3-phenylene)bis(methanylylidene))bis(4-(dimethylamino)benzohydrazide)] was run?
Its value is 16%.

For O=C(Nc1ccc2nn(-c3ccc([N+](=O)[O-])cc3)cc2c1)c1ccc(N2CCOCC2)cc1 [Compound 540, 4-Morpholino-N-(2-(4-nitrophenyl)-2H-indazol-5-yl)benzamide], which “Activity (%)” value is on record?
Its value is 17%.

O=C(Nc1ccc2[nH]c(-c3ccccc3)nc2c1)c1ccc(-c2ccccc2)cc1 [Compound 172, N-(2-Phenyl-1H-benzo[d]imidazol-5-yl)-[1,1′-biphenyl]-4-carboxamide] was tested. Which “Activity (%)” value did it give?
The value was 12%.

COC(=O)c1ccc(C(=O)Nc2ccc3[nH]c(-c4ccc(OC)cc4)nc3c2)cc1 [Compound 1739, Methyl 4-(2-(4-methoxyphenyl)-1H-benzimidazol-5-ylcarbamoyl)-benzoate] was tested. Which “Activity (%)” value did it give?
The value was 19%.

How did the “Activity (%)” value turn out when CS(=O)(=O)Nc1ccc2[nH]c(-c3ccc(C(=O)Nc4ccc(N5CCOCC5)cc4)cc3)nc2c1 [Compound 449] was run?
The value was 16%.

CCNc1ccc(C(=O)c2ccc(NC(=O)c3ccc(N4CCOCC4)cc3)cc2)cc1 [Compound 484, N-(4-(4-Ethylaminobenzoyl)phenyl)-4-morpholinobenzamide] was tested. Which “Activity (%)” value did it give?
Its value is 16%.

For COc1cccc(/C=N/NC(=O)c2ccc3c(ccn3CCCC(=O)Nc3cccc(N(C)C)c3)c2)c1 [Compound 156, (E)-N-(3-(dimethylamino)phenyl)-4-(5-(2-(3-methoxybenzylidene)hydrazinecarbonyl)-1H-indol-1-yl)butanamide], which “Activity (%)” value is on record?
Its value is 21%.

O=C(Nc1ccc2c(ccn2-c2ccc(C(=O)NC3CC3)cc2)c1)c1ccc2c(ccn2CCN2CCOCC2)c1 [Compound 960, N-(1-(4-(Cyclopropylcarbamoyl)phenyl)-1H-indol-5-yl)-1-(2-morpholinoethyl)-1H-indole-5-carboxamide] was tested. Which “Activity (%)” value did it give?
The value was 17%.

Cn1ccc2cc(C(=O)Nc3ccc4c(cnn4-c4ccc(NC(=O)C5CC5)cc4)c3)ccc21 [Compound 930, N-(1-(4-(Cyclopropanecarboxamido)phenyl)-1H-indazol-5-yl)-1-methyl-1H-indole-5-carboxamide] was tested. Which “Activity (%)” value did it give?
The value was 12%.

For O=C(Nc1ccc(-n2ncc3cc(O)ccc32)cc1)c1ccc(N2CCC(O)CC2)cc1 [Compound 990, N-(4-(5-(Hydroxy)-1H-indazol-1-yl)phenyl)-4-(4-hydroxypiperidin-1-yl)benzamide], which “Activity (%)” value is on record?
Its value is 10%.

Which “Activity (%)” value does the source give for O=C(Nc1ccc(Nc2ccc(NC(=O)c3ccc(N4CCC(O)CC4)cc3)cc2)cc1)c1ccc(N2CCC(O)CC2)cc1 [Compound 364, N,N′-(4,4′-Azanediylbis(4,1-phenylene))bis(4-(4-hydroxypiperidino)benzamide)] here?
Its value is 16%.

O=C(Nc1ccc2[nH]c(-c3ccc(N4CCOCC4)cc3)nc2c1)c1ccc2nc(-c3ccc(N(CCO)CCO)cc3)[nH]c2c1 [Compound 288, 2-(4-(bis(2-hydroxyethyl)amino)phenyl)-N-(2-(4-morpholinophenyl)-1H-benzo[d]imidazol-5-yl)-1H-benzo[d]imidazole-6-carboxamide] was tested. Which “Activity (%)” value did it give?
The value was 17%.

With Cn1cccc1C(=O)Nc1ccc(Oc2ccc(NC(=O)c3ccc(N4CCC(O)CC4)cc3)cc2)cc1 [Compound 915, N-(4-(4-(4-(4-Hydroxypiperidin-1-yl)benzamido)phenoxy)phenyl)-1-methyl-1H-pyrrole-2-carboxamide] as the molecule, how does the “Activity (%)” value read?
Its value is 17%.

Nc1ccc(C(=O)Nc2ccc(-c3nc4c(Cl)c(NC(=O)c5ccc(N)cc5)ccc4[nH]3)cc2)cc1 [Compound 1715, 4-Amino-N-(4-(5-(4-aminobenzamido)-4-chloro-1H-benzimidazol-2-yl)phenyl)benzamide] was tested. Which “Activity (%)” value did it give?
Its value is 10%.

How did the “Activity (%)” value turn out when Cc1noc(COc2ccc3nc(-c4ccc(C(=O)Nc5ccc6cc[nH]c6c5)cc4)[nH]c3c2)n1 [Compound 660, 4-(6-((3-Methyl-1,2,4-oxadiazol-5-yl)methoxy)-1H-benzo[d]imidazol-2-yl)-N-(1H-indol-6-yl)benzamide] was run?
Its value is 14%.

Which “Activity (%)” value does the source give for COCCOc1ccc2nc(-c3ccc(C(=O)Nc4ccc(N5CCC(O)CC5)cc4)cc3)[nH]c2c1 [Compound 670, N-(4-(4-Hydroxypiperidin-1-yl)phenyl)-4-(6-(2-methoxyethoxy)-1H-benzo[d]imidazol-2-yl)benzamide] here?
The value was 8%.

With O=C(Nc1ccc2[nH]c(-c3ccc(N4CCC5(CC4)OCCO5)cc3)nc2c1)c1ccc(N2CCOCC2)cc1 [Compound 413, N-(2-(4-(1,4-Dioxa-8-azaspiro[4,5]decan-8-yl)phenyl)-1H-benzimidazol-5-yl)-4-morpholinobenzamide] as the molecule, how does the “Activity (%)” value read?
The value was 19%.

For O=C(Nc1ccc(C(=O)c2ccc(NC(=O)c3ccc4[nH]ccc4c3)cc2)cc1)c1ccc2[nH]ccc2c1 [Compound 345, N,N′-(4,4′-Carbonylbis(4,1-phenylene))bis(1H-indole-5-carboxamide)], which “Activity (%)” value is on record?
The value was 19%.

With CN(C)c1ccc(C(=O)Nc2ccc3[nH]c(-c4ccc(-c5nn[nH]n5)cc4)nc3c2)cc1 [Compound 202, N-(2-(4-(2H-tetrazol-5-yl)phenyl)-1H-benzo[d]imidazol-5-yl)-4-(dimethylamino)benzamide] as the molecule, how does the “Activity (%)” value read?
The value was 17%.

Which “Activity (%)” value does the source give for CN(C)c1ccc(C(=O)Nc2ccc(C(=O)c3ccc(NC(=O)c4ccc(F)cc4)cc3)cc2)cc1 [Compound 354, 4-(Dimethylamino)-N-(4-(4-(4-fluorobenzamido)benzoyl)phenyl)benzamide] here?
Its value is 20%.

Which “Activity (%)” value does the source give for CN(C)c1ccc(C(=O)Nc2ccc3[nH]c(-c4ccc5nonc5c4)nc3c2)cc1 [Compound 186, N-(2-(benzo[c][1,2,5]oxadiazol-5-yl)-1H-benzo[d]imidazol-5-yl)-4-(dimethylamino)benzamide] here?
The value was 15%.

How did the “Activity (%)” value turn out when O=C(O)c1ccc(-c2nc3cc(NC(=O)c4ccc(N5CCCC5)cc4)ccc3[nH]2)cc1 [Compound 1719] was run?
The value was 17%.

CN(C)c1ccc(-c2nc3cc(-c4ccc5[nH]c(-c6ccc(N(C)C)cc6)nc5c4)ccc3[nH]2)cc1 [Compound 1744, 4,4′-(5,5′-Bibenzimidazole-2,2′-diyl)bis(N,N-dimethylaniline)] was tested. Which “Activity (%)” value did it give?
Its value is 11%.

With O=C(Nc1ccc(N2CCOCC2)cc1)c1ccc(-c2nc3ccc(OCc4ccccc4)cc3[nH]2)cc1 [Compound 639, 4-(6-Benzyloxy-1H-benzo[d]imidazol-2-yl)-N-(4-morpholinophenyl)benzamide] as the molecule, how does the “Activity (%)” value read?
Its value is 15%.

Which “Activity (%)” value does the source give for COCCNC(=O)CCCn1ccc2cc(C(=O)N/N=C/c3cccc(-n4cccn4)c3)ccc21 [Compound 160, (E)-4-(5-(2-(3-(1H-pyrazol-1-yl)benzylidene)hydrazinecarbonyl)-1H-indol-1-yl)-N-(2-methoxyethyl)butanamide] here?
Its value is 22%.

How did the “Activity (%)” value turn out when CN(C)c1ccc(C(=O)Nc2ccc(C(O)c3ccc(NC(=O)c4ccc(N(C)C)cc4)cc3)cc2)cc1 [Compound 305, N,N′-((hydroxymethylene)bis(4,1-phenylene))bis(4-(dimethylamino)benzamide)] was run?
Its value is 18%.

For O=C(Nc1ccc(C(=O)c2ccc(NC(=O)C3CC3)cc2)cc1)c1ccc(N2CCOCC2)cc1 [Compound 359], which “Activity (%)” value is on record?
Its value is 19%.

With Cn1ccc(C(=O)Nc2ccc(-n3cc(C4CC4)c4cc(NC(=O)c5ccc(N6CCC(O)CC6)cc5)ccc43)cc2)c1 [Compound 1070, N-(4-(3-cyclopropyl-5-(4-(4-hydroxypiperidin-1-yl)benzamido)-1H-indol-1-yl)phenyl)-1-methyl-1H-pyrrole-3-carboxamide] as the molecule, how does the “Activity (%)” value read?
Its value is 15%.

How did the “Activity (%)” value turn out when Cn1cccc1C(=O)Nc1ccc(C(=O)c2ccc(NC(=O)c3ccc(N4CCC(O)CC4)cc3Cl)cc2)cc1 [Compound 730, N-(4-(4-(2-Chloro-4-(4-hydroxypiperidin-1-yl)benzamido)benzoyl)phenyl)-1-methyl-1H-pyrrole-2-carboxamide] was run?
The value was 18%.

For CN(C)c1ccc(C(=O)N/N=C/c2cc(/C=N/NC(=O)c3ccc(N(C)C)cc3)cc(COCc3ccccc3)c2)cc1 [Compound 128, (N′,N′″E,N′,N′″E)-N′,N′″-((5-((benzyloxy)methyl)-1,3-phenylene)bis(methanylylidene))bis(4-(dimethylamino)benzohydrazide)], which “Activity (%)” value is on record?
The value was 20%.

O=C(NC1CC1)c1ccc(-n2cnc3cc(NC(=O)c4cc5ccccc5[nH]4)ccc32)cc1 [Compound 1060, N-(1-(4-(Cyclopropylcarbamoyl)phenyl)-1H-benzo[d]imidazol-5-yl)-1H-indole-2-carboxamide] was tested. Which “Activity (%)” value did it give?
Its value is 18%.

— patent US9144557B2, “Hematopoietic growth factor mimetic small molecule compounds and their uses” (Ligand Pharmaceuticals Inc., priority 2009, dated 2015)
